In brackets after ≈: the same amount, converted by molar mass. A value given as a limit tells only on which side of the number the result lay.

The text below walks through data of article doi:10.1101/2024.08.19.608619, “Discovery of potent SARS-CoV-2 nsp3 macrodomain inhibitors uncovers lack of translation to cellular antiviral response” (bioRxiv, 2024).

A short description of data set [1]: Hepatic microsomal stability, HLM. Type of data set: in vitro ADME, human. The following applies: In vitro human liver microsomal stability; for perc_remaining_no_cofactor: no cofactor.
Data set [2] is described as follows: In vitro kinetic solubility. The following applies: In vitro kinetic solubility, ph 7.4.
A short description of data set [3]: Permeability Papp (AB) MDR1/MDCKII. The following applies: In vitro MDR1-MDCKII permeability; for papp_a_to_b_mean: A to B; for perc_recovery_a_to_b_mean: recovery A to B.
Data set [4] can be described thus: LogD. The following applies: pH 7.4; In vitro LogD.
A short description of data set [5]: Hepatic microsomal stability, MLM. Type of data set: in vitro ADME.
The mark [6] stands for this setting: In vitro mouse liver microsomal stability.
[7] abbreviates: In vitro mouse liver microsomal stability, no cofactor.
Setting [8] is: In vitro mouse liver microsomal stability; no cofactor.

Consider `CC(C)[C@H](Nc1ncnc(N)c1Cl)c1ccc2c(c1)S(=O)(=O)CCC2` (racemic) [ASAP-0010739], for which, in data set [1], the clint was 79.0 µL/min/mg, the perc_remaining turned out to be 27.0%, the t_half was 21.0 min and the perc_remaining_no_cofactor came to 101.0%. Further, the solubility_mean in data set [2] was at least 400 µM. In addition, in data set [3] (mean), the papp_a_to_b_mean worked out at 10.1 ×10⁻⁶ cm/s and the perc_recovery_a_to_b_mean came out at 58.5%. Also, the logd in data set [4] stood at 2.4. Besides, in data set [5] (setting [6]), the clint amounted to 204.0 µL/min/mg, the perc_remaining stood at 4.0% and the t_half came out at 8.2 min. The perc_remaining_no_cofactor in data set [5] (setting [7]) stood at 102.0%.

In the case of `CC(C)[C@@H](Nc1ncnc2[nH]c(-c3cnn(CC(=O)N(C)C)c3)cc12)c1ccc2c(c1)S(=O)(=O)CCC2` [ASAP-0013747], in data set [1], the clint came to 297.0 µL/min/mg, the perc_remaining amounted to 1.0%, the t_half is 5.6 min and the perc_remaining_no_cofactor was found to be 99.0%. The solubility_mean in data set [2] stood at 256 µM (≈ 134 µg/mL). In data set [3] (no inhibitor), this molecule gave a papp_a_to_b_mean of 0.555 ×10⁻⁶ cm/s and a perc_recovery_a_to_b_mean of 78.8%. In addition, in data set [4], the logd is reported as 2.2. In data set [5] (setting [6]), this molecule yielded a clint of 31.0 µL/min/mg, a perc_remaining of 59.0% and a t_half of 53.8 min. For the same molecule, the perc_remaining_no_cofactor in data set [5] (setting [7]) is 102.0%.

As for `CC(C)[C@@H](Nc1ncnc2[nH]c(-c3cnn(C)c3C#N)cc12)c1ccc2c(n1)NC(=O)CO2` [ASAP-0008644], in data set [1], the clint was 70.0 µL/min/mg, the perc_remaining is reported as 30.0%, the t_half amounted to 23.7 min and the perc_remaining_no_cofactor is 97.0%. Further, in data set [2], the solubility_mean was determined as 29 µM (≈ 12.9 µg/mL). Also, in data set [3] (mean), the papp_a_to_b_mean stood at 9.83 ×10⁻⁶ cm/s and the perc_recovery_a_to_b_mean is reported as 91.2%. Besides, the logd in data set [4] came out at 3.7. Besides, in data set [5] (setting [6]), the clint was found to be 145.0 µL/min/mg, the perc_remaining is 9.0% and the t_half came out at 11.5 min. The perc_remaining_no_cofactor in data set [5] (setting [7]) amounted to 92.0%.

Take `CC(C)[C@@H](Nc1ncnc2[nH]c(-c3cnn(C)c3C#N)cc12)c1ccc2c(c1)S(=O)(=O)CCC2` [ASAP-0008651]: in data set [1], the clint came out at 490.0 µL/min/mg, the perc_remaining turned out to be 1.0%, the t_half is recorded as 3.4 min and the perc_remaining_no_cofactor amounted to 94.0%. The solubility_mean in data set [2] came out at 34 µM (≈ 16.2 µg/mL). In addition, in data set [3] (mean), the papp_a_to_b_mean stood at 1.97 ×10⁻⁶ cm/s and the perc_recovery_a_to_b_mean is on record as 81.6%. Also, in data set [4], the logd came out at 3.6. In data set [5] (setting [6]), the clint amounted to 440.0 µL/min/mg, the perc_remaining came to 0.0% and the t_half turned out to be 3.8 min. In data set [5] (setting [8]), the perc_remaining_no_cofactor is 96.0%.

In the case of `CNC(=O)c1c[nH]c2ncnc(N[C@@H](c3ccc4c(c3)OCCO4)C(C)C)c12` [ASAP-0008406], in data set [1], the clint turned out to be 79.0 µL/min/mg, the perc_remaining was found to be 27.0%, the t_half turned out to be 21.2 min and the perc_remaining_no_cofactor came to 113.0%. The solubility_mean in data set [2] was 319 µM (≈ 122 µg/mL). In data set [3] (mean), this molecule had a papp_a_to_b_mean of 16.2 ×10⁻⁶ cm/s and a perc_recovery_a_to_b_mean of 92.4%. For the same molecule, the logd in data set [4] amounted to 3.6. In data set [5] (setting [6]), this molecule had a clint of 88.0 µL/min/mg, a perc_remaining of 20.0% and a t_half of 19.0 min. The perc_remaining_no_cofactor in data set [5] (setting [8]) came out at 95.0%.

Turning to `CC(C)[C@H](Nc1ncnc2[nH]c(-c3cnn(CC(N)=O)c3)cc12)c1ccc2c(c1)S(=O)(=O)CCC2` (racemic) [ASAP-0008679], in data set [1], the clint worked out at 116.0 µL/min/mg, the perc_remaining is listed as 15.0%, the t_half came out at 14.4 min and the perc_remaining_no_cofactor was found to be 95.0%. Also, the solubility_mean in data set [2] worked out at 341 µM (≈ 168 µg/mL). In data set [3] (mean), the papp_a_to_b_mean stood at 0.32 ×10⁻⁶ cm/s and the perc_recovery_a_to_b_mean was determined as 79.9%. The same molecule showed a logd in data set [4] of 1.9. In data set [5] (setting [6]), this molecule returned a clint of 61.0 µL/min/mg, a perc_remaining of 37.0% and a t_half of 27.4 min. Also, the perc_remaining_no_cofactor in data set [5] (setting [8]) is reported as 109.0%.

For `CC(C)[C@H](Nc1ncnc2[nH]c(-c3cnn(CC(=O)N(C)C)c3)cc12)c1ccc2c(c1)S(=O)(=O)CCC2` [ASAP-0013744], in data set [1], the clint turned out to be 92.0 µL/min/mg, the perc_remaining is 22.0%, the t_half was 18.1 min and the perc_remaining_no_cofactor stood at 97.0%. This molecule also showed a solubility_mean in data set [2] of 361 µM (≈ 188 µg/mL). Besides, in data set [3] (no inhibitor), the papp_a_to_b_mean was 1.17 ×10⁻⁶ cm/s and the perc_recovery_a_to_b_mean was 116.0%. In data set [4], this molecule yielded a logd of 2.2. In data set [5] (setting [6]), the clint was found to be 124.0 µL/min/mg, the perc_remaining was 13.0% and the t_half turned out to be 13.5 min. Also, in data set [5] (setting [7]), the perc_remaining_no_cofactor amounted to 98.0%.

`CC(C)[C@@H](Nc1ncnc2[nH]c(-c3cnn(C)c3)cc12)c1ccc2c(c1)S(=O)(=O)CCC2` [ASAP-0008678]: in data set [1], the clint amounted to 141.0 µL/min/mg, the perc_remaining came to 10.0%, the t_half was 11.9 min and the perc_remaining_no_cofactor stood at 102.0%. The molecule further registered a solubility_mean in data set [2] of 94 µM (≈ 42.4 µg/mL). Moreover, in data set [3] (mean), the papp_a_to_b_mean was found to be 1.73 ×10⁻⁶ cm/s and the perc_recovery_a_to_b_mean is 85.6%. Also, the logd in data set [4] was found to be 3.3. In data set [5] (setting [6]), this molecule had a clint of 155.0 µL/min/mg, a perc_remaining of 7.0% and a t_half of 10.8 min. In addition, the perc_remaining_no_cofactor in data set [5] (setting [8]) is 102.0%.

For the molecule `CNC(=O)c1c[nH]c2ncnc(N[C@@H](c3ccc4c(c3)S(=O)(=O)CCC4)C(C)C)c12` [ASAP-0011156], in data set [1], the clint is 108.0 µL/min/mg, the perc_remaining came out at 17.0%, the t_half is recorded as 15.4 min and the perc_remaining_no_cofactor is given as 94.0%. In data set [2], the solubility_mean is 204 µM (≈ 87.2 µg/mL). Besides, in data set [3] (no inhibitor), the papp_a_to_b_mean stood at 0.857 ×10⁻⁶ cm/s and the perc_recovery_a_to_b_mean is reported as 78.7%. The logd in data set [4] worked out at 2.6. Besides, in data set [5] (setting [6]), the clint was 113.0 µL/min/mg, the perc_remaining is reported as 15.0% and the t_half is 14.7 min. In addition, in data set [5] (setting [7]), the perc_remaining_no_cofactor came out at 108.0%.

Consider `CNC(=O)c1c[nH]c2ncnc(N[C@H](c3ccc4c(c3)NC(=O)CO4)C(C)C)c12` (racemic) [ASAP-0008637], for which, in data set [1], the clint worked out at 86.0 µL/min/mg, the perc_remaining was found to be 23.0%, the t_half is 19.5 min and the perc_remaining_no_cofactor is reported as 98.0%. In addition, the solubility_mean in data set [2] came to 28 µM (≈ 11 µg/mL). In data set [3] (mean), this molecule gave a papp_a_to_b_mean of 4.26 ×10⁻⁶ cm/s and a perc_recovery_a_to_b_mean of 97.4%. In data set [4], this molecule came in with a logd of 3.2. In data set [5] (setting [6]), this molecule came in with a clint of 113.0 µL/min/mg, a perc_remaining of 16.0% and a t_half of 14.8 min. Moreover, in data set [5] (setting [7]), the perc_remaining_no_cofactor is recorded as 95.0%.

As to `COc1ccc([C@H](CC(=O)O)NC(=O)c2ncnc3[nH]ccc23)cc1` (racemic) [ASAP-0000591], in data set [1], the clint came to 7.0 µL/min/mg, the perc_remaining was found to be 87.0%, the t_half is on record as 240.4 min and the perc_remaining_no_cofactor stood at 88.0%. This molecule also had a solubility_mean in data set [2] of at least 400 µM. Also, in data set [3] (mean), the papp_a_to_b_mean amounted to 1.7 ×10⁻⁶ cm/s and the perc_recovery_a_to_b_mean is 90.0%. This molecule also gave a logd in data set [4] of -0.38. In data set [5] (setting [6]), this molecule returned a clint of 2.0 µL/min/mg, a perc_remaining of 94.0% and a t_half of 686.4 min. Further, in data set [5] (setting [8]), the perc_remaining_no_cofactor is 96.0%.

For `CC(C)(C)[C@H](Nc1ncnc2[nH]c(-c3cnn(CC(N)=O)c3)cc12)c1ccc2c(n1)OCCO2` (single isomer, unassigned) [ASAP-0011159], in data set [1], the clint came to 27.0 µL/min/mg, the perc_remaining is given as 64.0%, the t_half was 60.8 min and the perc_remaining_no_cofactor was 95.0%. This molecule gave a solubility_mean in data set [2] of 372 µM (≈ 172 µg/mL). In data set [3] (no inhibitor), this molecule came in with a papp_a_to_b_mean of 1.02 ×10⁻⁶ cm/s and a perc_recovery_a_to_b_mean of 95.8%. In data set [4], this molecule gave a logd of 2.7. In data set [5] (setting [6]), this molecule yielded a clint of 10.0 µL/min/mg, a perc_remaining of 88.0% and a t_half of 162.3 min. In data set [5] (setting [7]), the perc_remaining_no_cofactor amounted to 116.0%.

Consider `CC(C)[C@H](Nc1ncnc2[nH]cc(C(=O)NC3CC3)c12)c1ccc2c(c1)S(=O)(=O)CCC2` (single isomer, unassigned) [ASAP-0011247], for which, in data set [1], the clint was found to be 5.0 µL/min/mg, the perc_remaining turned out to be 90.0%, the t_half is given as 320.1 min and the perc_remaining_no_cofactor is 112.0%. The solubility_mean in data set [2] was found to be 19 µM (≈ 8.62 µg/mL). In data set [3] (no inhibitor), this molecule showed a papp_a_to_b_mean of 1.27 ×10⁻⁶ cm/s and a perc_recovery_a_to_b_mean of 71.5%. Further, in data set [4], the logd is recorded as 3.0. In data set [5] (setting [6]), this molecule showed a clint of 42.0 µL/min/mg, a perc_remaining of 50.0% and a t_half of 39.5 min. Moreover, in data set [5] (setting [7]), the perc_remaining_no_cofactor was found to be 102.0%.
